# Experimental data taken from patent US7211424B1, “Mammalian Subtilisin/kexin isozyme SKI-1: a proprotein convertase with a unique cleavage specificity” (Institut de Recherches Cliniques de Montreal, priority 1999, dated 2007).
# *1 amine or outer side, *2 acyl side, *3 side chain or, on linkers, in order; H or OH if unused. Where a SMILES comes first, the peptide text is derived from it. [ ]: non-standard residue; d: D form. The star is where a group is joined. Sta = CC(C)C[C@H](N)[C@@H](O)CC(=O)O; Isovaleryl = CC(C)CC(=O)*; CO = O=C([*:1])[*:2]
# T1: BTMD-SKI-1 (Homo sapiens, UniProt Q14703)
# T1 sequence (Q14703 187-997 limits assumed): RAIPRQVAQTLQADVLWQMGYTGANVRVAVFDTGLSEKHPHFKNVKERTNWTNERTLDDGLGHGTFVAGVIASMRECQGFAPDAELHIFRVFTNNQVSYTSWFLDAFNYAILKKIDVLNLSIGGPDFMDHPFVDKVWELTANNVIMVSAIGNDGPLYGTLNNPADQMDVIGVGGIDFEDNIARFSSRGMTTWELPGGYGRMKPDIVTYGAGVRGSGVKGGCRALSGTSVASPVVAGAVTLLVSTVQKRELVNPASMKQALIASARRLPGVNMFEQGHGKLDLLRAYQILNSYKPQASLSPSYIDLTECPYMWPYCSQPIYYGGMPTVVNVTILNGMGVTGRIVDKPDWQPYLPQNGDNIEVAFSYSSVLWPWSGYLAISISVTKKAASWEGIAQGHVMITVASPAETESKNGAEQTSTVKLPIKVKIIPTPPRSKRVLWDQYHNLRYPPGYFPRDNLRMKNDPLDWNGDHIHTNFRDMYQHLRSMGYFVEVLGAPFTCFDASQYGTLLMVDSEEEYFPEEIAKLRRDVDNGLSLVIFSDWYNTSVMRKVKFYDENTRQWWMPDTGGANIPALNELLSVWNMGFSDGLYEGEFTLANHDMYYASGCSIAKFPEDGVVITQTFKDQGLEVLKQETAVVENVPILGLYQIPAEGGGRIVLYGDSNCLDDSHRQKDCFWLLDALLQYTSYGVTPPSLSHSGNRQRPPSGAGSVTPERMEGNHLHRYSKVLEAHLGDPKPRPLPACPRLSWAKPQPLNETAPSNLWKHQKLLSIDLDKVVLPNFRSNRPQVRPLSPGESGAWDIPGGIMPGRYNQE
# T1 sequence (Q14703 17-137 partner limits assumed): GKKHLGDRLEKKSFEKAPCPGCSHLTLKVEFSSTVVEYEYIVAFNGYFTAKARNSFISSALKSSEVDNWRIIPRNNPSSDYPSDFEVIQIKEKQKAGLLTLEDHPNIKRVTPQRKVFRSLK
# T2: SKI-1 (Homo sapiens, UniProt Q14703)
# T2 sequence (Q14703 187-1052): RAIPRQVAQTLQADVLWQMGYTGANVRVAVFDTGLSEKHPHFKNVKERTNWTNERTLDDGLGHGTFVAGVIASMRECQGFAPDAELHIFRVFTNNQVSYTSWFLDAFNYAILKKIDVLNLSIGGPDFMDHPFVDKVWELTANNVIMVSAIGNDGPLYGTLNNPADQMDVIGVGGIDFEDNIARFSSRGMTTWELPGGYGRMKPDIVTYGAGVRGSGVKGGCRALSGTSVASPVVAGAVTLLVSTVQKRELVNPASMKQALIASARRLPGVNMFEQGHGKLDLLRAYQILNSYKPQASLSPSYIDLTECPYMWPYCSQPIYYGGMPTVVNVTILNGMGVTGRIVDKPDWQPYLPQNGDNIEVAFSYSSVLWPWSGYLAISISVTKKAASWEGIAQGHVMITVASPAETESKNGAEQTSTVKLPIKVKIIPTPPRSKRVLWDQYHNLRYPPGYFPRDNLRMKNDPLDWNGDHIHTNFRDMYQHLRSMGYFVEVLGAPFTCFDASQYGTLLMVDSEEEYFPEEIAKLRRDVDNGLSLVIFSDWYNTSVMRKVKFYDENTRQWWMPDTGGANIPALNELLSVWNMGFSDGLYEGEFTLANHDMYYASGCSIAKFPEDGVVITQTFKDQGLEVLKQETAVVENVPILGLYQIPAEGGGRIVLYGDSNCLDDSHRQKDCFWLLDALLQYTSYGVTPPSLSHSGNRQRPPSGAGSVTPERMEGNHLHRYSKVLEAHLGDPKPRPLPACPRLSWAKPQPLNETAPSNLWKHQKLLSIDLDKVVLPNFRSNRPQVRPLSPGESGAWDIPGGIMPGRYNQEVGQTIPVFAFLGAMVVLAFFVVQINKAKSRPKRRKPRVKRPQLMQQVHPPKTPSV
# T3: peptide XI, Q-hSKI-1 (134-142): Abz-RSLKYAESD-Y(NO2)-A
# T3 chain: XRSLKYAESDXA
# T4: peptide X, Q-hSKI-1 (132-142): Abz-VFRSLKYAESD-Y(NO2)-A
# T4 chain: XVFRSLKYAESDXA
# B1: proBDNF: 32 kDa human pro-brain-derived neurotrophic factor, precursor substrate (protein, UniProt P23560 19-247, looked up)
# pro-form: APMKEANIRGQGGLAYPGVRTHGTLESVNGPKAGSRGLTSLADTFEHVIEELLDEDQKVRPNEENNKDADLYTSRVMLSSQVPLEPPLLFLLEEYKNYLDAANMSMRVRRHSDPARRGELSVCDSISEWVTAADKKTAVDMSGGTVTVLEKVPVSKGQLKQYFYETKCNPMGYTKEGCRGIDKRHWNSQCRTTQSYVRALTMDSKKRIGWRFIRIDTSCVCTLTIKRGR
# modifications: pro-form
# notes: 32 kDa human pro-brain-derived neurotrophic factor, precursor substrate
# B2: soya bean trypsin inhibitor (protein, UniProt P01070 25-205, looked up)
# Trypsin inhibitor A: DFVLDNEGNPLENGGTYYILSDITAFGGIRAAPTGNERCPLTVVQSRNELDKGIGTIISSPYRIRFIAEGHPLSLKFDSFAVIMLCVGIPTEWSVVEDLPEGPAVKIGENKDAMDGWFRLERVSDDEFNNYKLVFCPQQAEDDKCGDIGISIDHDDGTRRLVVSKNKPLVVQFQKLDKESL
# B3: 98 kDa shed form of SKI-1 (sSKI-1) (protein)
# chain: RAIPRQVAQTLQADVLWQMGYTGANVRVAVFDTGLSEKHPHFKNVKERTNWTNERTLDDGLGHGTFVAGVIASMRECQGFAPDAELHIFRVFTNNQVSYTSWFLDAFNYAILKKIDVLNLSIGGPDFMDHPFVDKVWELTANNVIMVSAIGNDGPLYGTLNNPADQMDVIGVGGIDFEDNIARFSSRGMTTWELPGGYGRMKPDIVTYGAGVRGSGVKGGCRALSGTSVASPVVAGAVTLLVSTVQKRELVNPASMKQALIASARRLPGVNMFEQGHGKLDLLRAYQILNSYKPQASLSPSYIDLTECPYMWPYCSQPIYYGGMPTVVNVTILNGMGVTGRIVDKPDWQPYLPQNGDNIEVAFSYSSVLWPWSGYLAISISVTKKAASWEGIAQGHVMITVASPAETESKNGAEQTSTVKLPIKVKIIPTPPRSKRVLWDQYHNLRYPPGYFPRDNLRMKNDPLDWNGDHIHTNFRDMYQHLRSMGYFVEVLGAPFTCFDASQYGTLLMVDSEEEYFPEEIAKLRRDVDNGLSLVIFSDWYNTSVMRKVKFYDENTRQWWMPDTGGANIPALNELLSVWNMGFSDGLYEGEFTLANHDMYYASGCSIAKFPEDGVVITQTFKDQGLEVLKQETAVVENVPILGLYQIPAEGGGRIVLYGDSNCLDDSHRQKDCFWLLDALLQYTSYGVTPPSLSHSGNRQRPPSGAGSVTPERMEGNHLHRYSKVLEAHLGDPKPRPLPACPRLSWAKPQPLNETAPSNLWKHQKLLSIDLDKVVLPNFRSNRPQVRPLSPGESGAWDIPGGIMPGRYNQ
# Columns and labels:
# BTMD-SKI-1 = molecular target: T1, BTMD-SKI-1; assay: biochemical; type: biochemical
# SKI-1 = molecular target: T2, SKI-1; type: cell-based; design: The VV recombinant of full-length hSKI-1 has been described (10); expressed in transfected cells; host or cells: COS-7 cells co-infected with vv:BDNF and vv:SKI-1 (with vv:WT, vv:PIT or vv:PDX)
# [1] = molecular target: T3, peptide XI, Q-hSKI-1 (134-142): …
# [2] = molecular target: T4, peptide X, Q-hSKI-1 (132-142): …
# [3] = read-out: Hydrolysis of SREBP-2 peptide (% of control)
molecule,measurement,setting,value
CC(=O)N[C@@H](CC(C)C)C(=O)N[C@@H](CC(C)C)C(=O)N[C@H](C=O)CCCNC(=N)N [Leupeptin],remaining activity at 1000 µM,BTMD-SKI-1; [3],100%
"CC(C)CC(=O)N[C@H](C(=O)N[C@H](C(=O)N[C@@H](CC(C)C)[C@@H](O)CC(=O)N[C@@H](C)C(=O)N[C@@H](CC(C)C)[C@@H](O)CC(=O)O)C(C)C)C(C)C [Pepstatin, pepstatin] (Isovaleryl-VV[Sta]A[Sta]-OH)",remaining activity at 100 µM,BTMD-SKI-1; [3],97%
"CC(C)[C@H](NC(=O)[C@H](CCCNC(=N)N)NC(=O)N[C@@H](Cc1ccccc1)C(=O)O)C(=O)N[C@H](C=O)CCCNC(=N)N [Antipain, antipain] ({Phe-CO}-Arg-Val-Arg-aldehyde)",remaining activity at 1000 µM,BTMD-SKI-1; [3],100%
O=S(=O)([O-])[O-].[Zn+2] [ZnSO4],Hydrolysis of SREBP-2 peptide (% of control),BTMD-SKI-1,0 % of control
Cc1ccc(S(=O)(=O)N[C@@H](Cc2ccccc2)C(=O)CCl)cc1 [TPCK],Hydrolysis of SREBP-2 peptide (% of control),BTMD-SKI-1,71 % of control
O=S(=O)([O-])[O-].[Cu+2] [CuSO4],Hydrolysis of SREBP-2 peptide (% of control),BTMD-SKI-1,0 % of control
Cc1ccc(S(=O)(=O)NC(CCCCN)C(=O)CCl)cc1 (stereo not drawn) [TLCK],Hydrolysis of SREBP-2 peptide (% of control),BTMD-SKI-1,100 % of control
O=S(=O)([O-])[O-].[Ni+2] [NiSO4],Hydrolysis of SREBP-2 peptide (% of control),BTMD-SKI-1,93 % of control
α1-antitrypsin Pittsburgh [α1-PIT],level of the 28 kDa BDNF product,SKI-1,neither α1-PIT nor α1-PDX affect the level of the 28 kDa product
[Cl-].[Cl-].[Mg+2] [MgCl2],Hydrolysis of SREBP-2 peptide (% of control),BTMD-SKI-1,100 % of control
O[C@H](CS)[C@H](O)CS (racemic) [Dithiothreitol],remaining activity at 10000 µM,BTMD-SKI-1; [3],92%
[Cl-].[Cl-].[Co+2] [CoCl2],Hydrolysis of SREBP-2 peptide (% of control),BTMD-SKI-1,100 % of control
CC(C)C[C@H](NC(=O)[C@H]1O[C@@H]1C(=O)O)C(=O)NCCCCN=C(N)N [Peptide E-64],Hydrolysis of SREBP-2 peptide (% of control),BTMD-SKI-1,100 % of control
"Nc1ccc(CS(=O)(=O)F)cc1 [APMSF, para-aminophenylmethylsulfonyl fluoride]",Hydrolysis of SREBP-2 peptide (% of control),BTMD-SKI-1,95 % of control
cystatin,Hydrolysis of SREBP-2 peptide (% of control),BTMD-SKI-1,100 % of control
O=C(O)CN(CCOCCOCCN(CC(=O)O)CC(=O)O)CC(=O)O [EGTA],Hydrolysis of SREBP-2 peptide (% of control),BTMD-SKI-1,15 % of control
CC(C)C[C@H](NC(=O)[C@@H](NC(=O)N[C@@H](Cc1ccccc1)C(=O)O)[C@@H]1CCN=C(N)N1)C(=O)N[C@H](C=O)Cc1ccccc1 [Chymostatin],remaining activity at 1000 µM,BTMD-SKI-1; [3],100%
B1,intracellular cleavage of precursor by SKI-1,SKI-1,could be cleaved intracellularly by SKI-1
B2,Hydrolysis of SREBP-2 peptide (% of control),BTMD-SKI-1,100 % of control
B3,Km(app),[1],8.7 µM
same,Vmax(app),[1],56.9 µmol/h
same,Vmax(app)/Km(app),[1],6.5 h^-1L^-1
same,cleavage of quenched fluorogenic peptide (mass spectrometry),[1],"both peptides were cleaved at the RSLK↓ (SEQ. ID. NO. 100) site by shed SKI-1 derived from HK293 cell transfects, but not by medium obtained from HK293 empty vector transfectants"
same,Km(app),[2],31.3 µM
same,Vmax(app),[2],34 µmol/h
same,Vmax(app)/Km(app),[2],1.1 h^-1L^-1
same,cleavage of quenched fluorogenic peptide (mass spectrometry),[2],"both peptides were cleaved at the RSLK↓ (SEQ. ID. NO. 100) site by shed SKI-1 derived from HK293 cell transfects, but not by medium obtained from HK293 empty vector transfectants"
